The subject of the test is VRE. The settings on record: preliminary testing.

The values below come from US8710182B2, “Rapid glycopeptide optimization via neoglycosylation” (Wisconsin Alumni Research Foundation, priority 2006, dated 2014).

With “2′-N-acyldecanoyl-glucosyl vancomycin neoglycoside [compound 5]”, the “activity against VRE” value was “significant activity”.
